{"source": "paper PMC8667045", "about": "“Into Deep Water: Optimizing BCL6 Inhibitors by Growing into a Solvated Pocket” (Journal of Medicinal Chemistry, 2021)", "key": {"[1]": {"target": "T1, BCL6 BTB domain (Homo sapiens, UniProt P41182)", "assay": "biochemical", "settings": "for pIC50: supplement", "experimental": "Supplementary experimental: protein production, purification and crystallography\n3C protease cleavage site.\nused without cleaving the tag, as a 6His was needed to bind to the anti-6His-Terbium antibody. For\nFor both plasmid constructs described above, transformed BL21-AI E. coli cells were grown in LB\ncarried out at 18 °C for 18 hours. Cells were harvested by centrifugation (5500 g for 30 minutes at 4\noC) and stored at -80 °C.\nCells were re-suspended in a buffer composed of 20 mM Tris pH 8, 250 mM NaCl, 1 mM MgCl2, 0.5\nCells were lysed by sonication followed by centrifugation at 21,000 g for 45 minutes at 4 °C. […]\nThe final protein was assessed for purity\nand molar mass by SDS-PAGE and high-resolution mass spectrometry, respectively.\ndirectly eluted from the HisTrap FF column without HRV-3C treatment, and submitted to Superdex75\ngel filtration as described above. […]\n2. Supplementary experimental: biological assay conditions\nIC50 values were determined using\na sigmoidal four-parameter logistic fit equation."}, "[2]": {"assay": "NMR solubility assay", "type": "physicochemical", "settings": "HEPES buffer, 5% DMSO, room temperature", "experimental": "3. Supplementary experimental: physicochemical assays\nThe plate was then sealed and incubated at room temperature for 20 hours, without shaking. The plate was centrifuged again for 1 minute at […]\nspectrometer equipped with a 5 mm TCI-CryoProbe. […]\ndeuterated solvent. […] All NMR data were acquired at the […]\ncontained 16k time-domain data points. Relaxation delay was set to 20 sec. […]"}, "[3]": {"assay": "Measured logD7.4", "type": "physicochemical", "settings": "pH 7.4"}, "[4]": {"tested_on": "OCI-Ly1", "assay": "14 day cell viability assay (CellTiter Glo)", "type": "cell-based", "settings": "Homo sapiens, BCL6-high, 14 days of treatment"}, "[5]": {"tested_on": "SU-DHL-4", "assay": "14 day cell viability assay (CellTiter Glo)", "type": "cell-based", "settings": "Homo sapiens, BCL6-high, 14 days of treatment"}, "[6]": {"tested_on": "SU-DHL-6", "assay": "14 day cell viability assay (CellTiter Glo)", "type": "cell-based", "settings": "Homo sapiens, BCL6-high, 14 days of treatment"}, "[7]": {"tested_on": "OCI-Ly3", "assay": "14 day cell viability assay (CellTiter Glo)", "type": "cell-based", "settings": "Homo sapiens, BCL6-low, 14 days of treatment"}, "[8]": {"tested_on": "MM.1S", "assay": "14 day cell viability assay (CellTiter Glo)", "type": "cell-based", "settings": "Homo sapiens, MM1.S; BCL6-low, 14 days of treatment"}, "[9]": {"assay": "In vivo pharmacokinetic study in female Balb/c mice", "settings": "mouse; for Cmax: blood", "experimental": "5. Supplementary experimental: in vivo PK and PD experiments\nAll procedures were in accordance with UK Home Office regulations under the Animals (Scientific […]\naccordance with published guidelines17. Mice were allowed access to food and water ad libitum.\n5.1In vivo pharmacokinetic studies\nAll experiments were conducted in accordance with the UKCC guidelines for animal experimentations17. Animals were adapted to laboratory conditions for at least 1 week prior to dosing and were allowed food and water ad libitum. CCT369347 (25) was administered iv or po (mouse, 0.1 mL/10 g in 10% DMSO, 5% tween 20 in saline); Blood samples were collected in […]\ncollection together with a standard curve and quality controls spiked in control blood. Samples were reconstituted in a Water:MeOH mixture containing internal standard as previously described […]\nFollowing centrifugation, extracts were analyzed by multiple reaction monitoring of precursor and product ions by ESI-LCMS/MS on either a Waters (Milford, MA, USA) Xevo TQ-S or Sciex (Framingham, MA, USA) QTrap6500 following gradient separation with 0.1% […]\nQuantitation was carried out with an external calibration. Quality controls were […]\nPharmacokinetic parameters were derived from noncompartmental analysis using Phoenix Pharsight. Non compartmental analysis (model 200"}, "[10]": {"assay": "Protein binding by equilibrium dialysis", "type": "in vitro ADME, mouse"}, "[11]": {"assay": "PAMPA passive permeability pH 7.4", "settings": "pH 7.4, passive permeability Pe"}, "[12]": {"target": "T1, BCL6 BTB domain", "assay": "SPR assay, immobilised BCL6 BTB protein (Biacore T200)", "type": "binding", "set-up": "made in house; host or cells: E. coli BL21-AI"}, "[13]": {"settings": "female, Balb/c, whole blood, iv, 1 mg/kg, IV 1 mg/kg, individual animals"}, "[14]": {"settings": "female, Balb/c, whole blood, po, 5 mg/kg, PO 5 mg/kg, individual animals"}, "[15]": {"settings": "IV 1 mg/kg, individual animals, 1 mg/kg"}, "[16]": {"settings": "PO 5 mg/kg, individual animals, 5 mg/kg"}}, "note": "pIC50, pKd: −log10 of the molar value. “And” between values parts separate entries of the source, which are not always exact repeats. Identical values can stand only once. Like-named read-outs stand apart in the source and are kept apart here.", "data": [{"smiles": "Cn1c(=O)cc(NC(C)(C)c2ncc(C3CC3)cn2)c2cc(Nc3ccnc(Cl)c3C#N)ccc21", "note": "[Compound 25, 2-Chloro-4-((4-((2-(5-cyclopropylpyrimidin-2-yl)propan-2-yl)amino)-1-methyl-2-oxo-1,2-dihydroquinolin-6-yl)amino)nicotinonitrile]", "values": [{"measurement": "pIC50", "setting": "[1]; BCL6 TR-FRET Geo Mean IC50, geometric mean of n replicates", "value": 7.52}, {"measurement": "IC50", "setting": "[1]; TR-FRET IC50 individual replicates, single replicates, italic values used 10nM BCL6, otherwise 1nM BCL6", "value": "40 nM and 20 nM (2×) and 30 nM (2×)"}, {"measurement": "BCL6 TR-FRET pIC50 mean", "setting": "[1]; mean of n replicates", "value": "7.58 and 7.583"}, {"measurement": "pIC50", "setting": "[1]; read-out: BCL6 TR-FRET Geo Mean IC50, geometric mean of n replicates", "value": 7.58}, {"measurement": "solubility at 20 h", "setting": "[2]", "value": "30 µM and 29 µM"}, {"measurement": "logD", "setting": "[3]", "value": 2.7}, {"measurement": "GI50", "setting": "[4]", "value": 1680, "unit": "nM"}, {"measurement": "GI50", "setting": "[5]", "value": 3.45, "unit": "µM"}, {"measurement": "GI50", "setting": "[6]", "value": 2550, "unit": "nM"}, {"measurement": "GI50", "setting": "[7]", "value": "> 10", "unit": "µM"}, {"measurement": "GI50", "setting": "[8]", "value": "> 10", "unit": "µM"}, {"measurement": "clearance", "setting": "[9]; female, Balb/c, whole blood, iv, 1 mg/kg, 1 mg kg^–1 i.v., mean, read-out: clearance (CL)", "value": 24, "unit": "mL/min/kg"}, {"measurement": "Cmax", "setting": "[9]; [13]", "value": 443, "unit": "nM"}, {"measurement": "AUC(0-inf)", "setting": "[9]; [13]", "value": 1.38, "unit": "µM·h"}, {"measurement": "AUC(0-t)", "setting": "[9]; [13]", "value": 1.28, "unit": "µM·h"}, {"measurement": "clearance", "setting": "[9]; female, Balb/c, whole blood, iv, 1 mg/kg, IV 1 mg/kg, individual animals, read-out: CL", "value": 24.9, "unit": "mL/min/kg"}, {"measurement": "Tmax", "setting": "[9]; female, Balb/c, whole blood, iv, 1 mg/kg, IV 1 mg/kg, individual animals, read-out: Tmax", "value": 0.08, "unit": "h"}, {"measurement": "Vd", "setting": "[9]; female, Balb/c, whole blood, iv, 1 mg/kg, IV 1 mg/kg, individual animals, read-out: Vss", "value": 9.43, "unit": "L/kg"}, {"measurement": "Cmax", "setting": "[9]; [14]", "value": 347, "unit": "nM"}, {"measurement": "AUC(0-inf)", "setting": "[9]; [14]", "value": 1.44, "unit": "µM·h"}, {"measurement": "AUC(0-t)", "setting": "[9]; [14]", "value": 1.35, "unit": "µM·h"}, {"measurement": "Tmax", "setting": "[9]; female, Balb/c, whole blood, po, 5 mg/kg, PO 5 mg/kg, individual animals, read-out: Tmax", "value": 2, "unit": "h"}, {"measurement": "bioavailability", "setting": "[9]; female, Balb/c, whole blood, po, 5 mg kg^–1 p.o. vs 1 mg kg^–1 i.v.", "value": 29, "unit": "%"}, {"measurement": "toxicity in PK study", "setting": "[9]; 1 mg kg^–1 i.v. and 5 mg kg^–1 p.o.", "value": "no toxicity was observed"}, {"measurement": "Cmax", "setting": "[9]; [15]", "value": "521 nM and 471 nM"}, {"measurement": "AUCINF", "setting": "[9]; [15]", "value": "1450 nmol·h/L and 1416 nmol·h/L"}, {"measurement": "AUClast", "setting": "[9]; [15]", "value": "1395 nmol·h/L and 1344 nmol·h/L"}, {"measurement": "CL", "setting": "[9]; [15]", "value": "23.7 mL/min/kg and 24.2 mL/min/kg"}, {"measurement": "HL_Lambda_z", "setting": "[9]; [15]", "value": "7.99 h and 5.93 h and 6.83 h"}, {"measurement": "Vss", "setting": "[9]; [15]", "value": "6.96 L/kg and 7.81 L/kg"}, {"measurement": "Cmax", "setting": "[9]; [16]", "value": "382 nM and 427 nM"}, {"measurement": "AUCINF", "setting": "[9]; [16]", "value": "1848 nmol·h/L and 1279 nmol·h/L"}, {"measurement": "AUClast", "setting": "[9]; [16]", "value": "1534 nmol·h/L and 1233 nmol·h/L"}, {"measurement": "HL_Lambda_z", "setting": "[9]; [16]", "value": "1.33 h and 2.12 h and 1.14 h"}, {"measurement": "Tmax", "setting": "[9]; [16]", "value": 1, "unit": "h"}, {"measurement": "free in mouse plasma", "setting": "[10]", "value": 1.3, "unit": "%"}, {"measurement": "PAMPA7.4", "setting": "[11]", "value": "35 x10^-6 cms^-1"}, {"measurement": "pKd", "setting": "[12]; individual runs, Langmuir plot, 1:1 binding model, read-out: SPR KD", "value": "6.56 and 6.55 and 6.70"}, {"measurement": "pKd", "setting": "[12]; mean of four runs, read-out: SPR KD mean value", "value": 6.63}, {"measurement": "SPR pKd", "setting": "[12]; mean, +/- SEM where printed", "value": 6.63}]}]}
